Test results reported in PMC10367051, “Comprehensive Mechanistic View of the Hydrolysis of Oxadiazole-Based Inhibitors by Histone Deacetylase 6 (HDAC6)” (ACS Chemical Biology, 2023).

Columns and labels:
HDAC6(Y745F) mutant = target: T1, HDAC6(Y745F) mutant (Danio rerio, UniProt F8W4B7, Y745F); assay: Inhibitor hydrolysis in vitro by HDAC6(Y745F) mutant (LC-MS/MS); format: biochemical; details: 30 °C; for hydrolysis by the HDAC6(Y745F) mutant: 20 μM compound, 2 μM enzyme
T1 construct: Danio rerio HDAC6 (amino acids 440–798; zHDAC6); His (N, cleaved yes); MBP (N, cleaved yes); made in house; host or cells: RIPL Escherichia coli
T1 sequence (F8W4B7 440-798 Y745F): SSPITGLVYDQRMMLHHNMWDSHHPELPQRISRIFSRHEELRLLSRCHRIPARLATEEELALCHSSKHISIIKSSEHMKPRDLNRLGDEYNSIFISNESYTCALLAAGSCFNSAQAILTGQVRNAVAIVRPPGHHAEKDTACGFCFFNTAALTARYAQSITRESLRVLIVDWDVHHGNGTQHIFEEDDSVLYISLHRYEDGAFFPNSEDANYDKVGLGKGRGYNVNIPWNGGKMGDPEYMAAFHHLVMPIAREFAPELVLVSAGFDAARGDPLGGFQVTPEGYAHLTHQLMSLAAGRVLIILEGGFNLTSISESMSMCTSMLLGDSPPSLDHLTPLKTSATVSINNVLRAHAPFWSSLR
Description: The zHDAC6 mutants (Y745F and H574A) were constructed using the Quick-change site-directed mutagenesis protocol with the pEC566-zHDAC6 expression plasmid as a template. Both mutants were expressed and purified as described above for wild-type zHDAC6 (Figure S2).
Mass spectrometry quantification of inhibitors/reaction products was carried out with a Shimadzu LCMS-8040 instrument (Shimadzu, HPLC Prominence system). Analytes were separated on a Kinetex XB-C18 2.6 μm, 100 Å column (50 × 2.1 mm; Phenomenex) in a linear 15–60% CH3CN/H2O gradient containing 0.1% formic acid at a flow rate of 0.8 mL min^–1 over 4 min. Multiple reaction monitoring (MRM) parameters were optimized for each analyte, and corresponding major CID fragments were used for quantification. Analytes were quantified using corresponding calibration curves generated from pure compounds dissolved in water.
[…] […] Four microliter aliquots of reaction mixtures were injected into the system directly from the 96-well plate, and inhibitors/reaction products were quantitated as described above.

HDAC10 = target: T2, HDAC10 (Homo sapiens, UniProt Q969S8); assay: HDAC10 inhibition assay (HPLC readout); format: biochemical; details: purified human protein, fluorescein-labeled N8-acetylspermidine substrate, 15 min preincubation
T2 construct: made in house; host or cells: HEK293/T17
T2 sequence (Q969S8 1-669): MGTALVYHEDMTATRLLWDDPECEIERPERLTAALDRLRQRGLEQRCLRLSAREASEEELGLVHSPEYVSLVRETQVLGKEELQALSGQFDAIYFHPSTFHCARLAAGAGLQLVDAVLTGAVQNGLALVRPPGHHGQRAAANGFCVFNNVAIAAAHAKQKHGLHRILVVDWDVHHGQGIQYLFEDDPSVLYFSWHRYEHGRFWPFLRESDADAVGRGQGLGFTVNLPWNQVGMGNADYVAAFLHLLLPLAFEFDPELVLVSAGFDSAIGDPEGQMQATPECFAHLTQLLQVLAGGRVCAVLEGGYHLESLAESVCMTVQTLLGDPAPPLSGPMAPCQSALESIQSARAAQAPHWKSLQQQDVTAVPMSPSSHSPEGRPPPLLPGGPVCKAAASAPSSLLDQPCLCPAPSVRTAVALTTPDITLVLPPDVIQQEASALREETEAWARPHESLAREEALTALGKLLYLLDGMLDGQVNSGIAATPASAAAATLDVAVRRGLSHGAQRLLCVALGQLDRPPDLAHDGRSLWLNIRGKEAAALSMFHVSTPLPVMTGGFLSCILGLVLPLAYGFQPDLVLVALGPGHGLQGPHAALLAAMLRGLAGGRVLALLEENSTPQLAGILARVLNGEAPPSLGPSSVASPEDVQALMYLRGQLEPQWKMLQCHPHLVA
Description: Large-scale expression of recombinant human HDACs was carried out as described previously.[32],[37] Briefly, HEK293/T17 cells were transiently transfected with expression pMM222 plasmids comprising N-terminally tagged (TwinStrep-FLAG-HALO tag; Figure S1) HDAC genes using linear poly(ethyleneimine) (PEI, Polysciences Inc.). Cells were harvested three days post-transfection, and cell pellets were resuspended in the lysis buffer (100 mM Tris-HCl, 10 mM NaCl, 5 mM KCl, 2 mM MgCl2, and 10% glycerol at pH 8.0). Cells were disrupted by sonication, cell lysates were cleared by centrifugation, and soluble fusion proteins were first purified by Streptactin affinity chromatography (IBA). For all HDACs but HDACs 1, 10, and 11, the N-terminal tag was cleaved off overnight by the addition of TEV protease (10:1 HDAC/TEV ratio). […]
Optimized fluorometric assays were used to determine inhibition constants of studied compounds against individual HDAC isoforms as described previously.[32] […] Deacetylation reactions were monitored either by high-performance liquid chromatography (HPLC) (HDAC10) or by quantification of released AMC (λex/λem = 365/440 nm) using a CLARIOstar plate reader (BMG Labtech GmbH).

Row | SMILES | hydrolysis by the HDAC6(Y745F) mutant (HDAC6(Y745F) mutant) | IC50 (HDAC10) | rate of hydrolysis by the HDAC6(Y745F) mutant relative to wild type (HDAC6(Y745F) mutant; 20 μM 8, 2 μM enzyme)
1 | CS(=O)(=O)N(Cc1ccc(C(=O)NNC(=O)C(F)F)cn1)c1cccc(Cl)c1 [compound 6] | hydrolyzed | – | –
2 | CS(=O)(=O)N(Cc1ccc(-c2nnc(C(F)(F)F)o2)cn1)c1cccc(Cl)c1 [compound 7] | – | > 20 µM | –
3 | CS(=O)(=O)N(Cc1ccc(-c2nnc(C(F)F)o2)cn1)c1cccc(Cl)c1 [compound 8] | hydrolyzed | > 20 µM | comparable to the wild-type HDAC6
